According to patent US20250215039A1, “NUCLEOSIDES FOR TREATING CANCER” (PRIMEFOUR THERAPEUTICS, INC., priority 2022, published 2025):
Where two headings read alike, the source gives them in different places.

Tested on: cancer cell lines
Test: Cancer cell proliferation activity (CellTiterGlo, 72 h)
Type: cell-based
Details: 72 h, 72 h, read-out: IC50 cell proliferation
In short: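 Readout is CellTiterGlo luminescence after 72 h compound exposure (0.1% DMSO final), started one day post-seeding, at 37 °C.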

IC50 (5637 (bladder)): 1 nM
IC50 (CLS439 (bladder)): 23 nM
IC50 (HS729 (muscle)): 15 nM
IC50 (J82 (bladder)): 5 nM
IC50 (JAR (placenta)): 18 nM
IC50 (MT3 (breast)): 4 nM
IC50 (PANCI (pancreas)): 28 nM
IC50 (PC3 (prostate)): 14 nM
IC50 (RD (muscle)): 10 nM
IC50 (T24 (bladder)): 5 nM
IC50 (Homo sapiens, 22Rv1, 72 h, 22RV1 (prostate)): 2 nM
IC50 (Homo sapiens, 786-0, 72 h, 786O (kidney)): 17 nM
IC50 (Homo sapiens, A204, 72 h, A204 (muscle)): 51 nM
IC50 (Homo sapiens, A549, 72 h, A549 (lung)): 14 nM
IC50 (Homo sapiens, A673, 72 h, A673 (bone)): 3 nM
IC50 (Homo sapiens, A2780, 72 h, A2780 (ovary)): 8 nM
IC50 (Homo sapiens, A-375, 72 h, A375 (skin)): 7 nM
IC50 (Homo sapiens, A-431, 72 h, A431 (skin)): 0.4 nM
IC50 (Homo sapiens, ACHN, ACHN (kidney)): 3 nM
IC50 (Homo sapiens, ASPC1, 72 h, ASPC1 (pancreas)): 8 nM
IC50 (Homo sapiens, BT-20, 72 h, BT20 (breast)): > 50000 nM
IC50 (Homo sapiens, BXPC-3, 72 h, BXPC3 (pancreas)): 1 nM
IC50 (Homo sapiens, C-33-A, C33A (endometrial)): 9 nM
IC50 (Homo sapiens, CAKI-1, 72 h, CAKI1 (kidney)): 45 nM
IC50 (Homo sapiens, COLO 205, 72 h, COLO205 (colon)): 1 nM
IC50 (Homo sapiens, COLO-678, 72 h, COLO678 (colon)): > 50000 nM
IC50 (Homo sapiens, Ca-Ski, CASKI (endometrial)): 23 nM
IC50 (Homo sapiens, Caco-2, 72 h, CACO2 (colon)): > 50000 nM
IC50 (Homo sapiens, Calu-6, 72 h, CALU6 (lung)): 29 nM
IC50 (Homo sapiens, DLD-1, 72 h, DLD1 (colon)): 16 nM
IC50 (Homo sapiens, DU-145, 72 h, DU145 (prostate)): 10 nM
IC50 (Homo sapiens, EFO-21, 72 h, EFO21 (ovary)): 476 nM
IC50 (Homo sapiens, EJ-28, 72 h, EJ28 (bladder)): 4 nM
IC50 (Homo sapiens, Granta-519, 72 h, GRANTA-519 (hematological)): 9 nM
IC50 (Homo sapiens, HCT-15, 72 h, HCT15 (colon)): 15 nM
IC50 (Homo sapiens, HCT-116, 72 h, HCT116 (colon)): 23 nM
IC50 (Homo sapiens, HEK293, 72 h, HEK293 (kidney)): 30 nM
IC50 (Homo sapiens, HL-60, 72 h, HL-60 (hematological)): 8 nM
IC50 (Homo sapiens, HT-29, 72 h, HT29 (colon)): 2 nM
IC50 (Homo sapiens, HT-1080, 72 h, HT1080 (connective tissue)): 8 nM
IC50 (Homo sapiens, HeLa, HELA (endometrial)): 1530 nM
IC50 (Homo sapiens, HepG2, 72 h, HEPG2 (liver)): 2 nM
IC50 (Homo sapiens, Hs-578T, HS578T (breast)): > 50000 nM
IC50 (Homo sapiens, IGROV-1, 72 h, IGROV1 (ovary)): 22 nM
IC50 (Homo sapiens, IMR-90, 72 h, IMR90 (lung)): > 50000 nM
IC50 (Homo sapiens, JEG-3, 72 h, JEG3 (placenta)): 2 nM
IC50 (Homo sapiens, JIMT-1, 72 h, JIMT1 (breast)): 34 nM
IC50 (Homo sapiens, K562, 72 h, K-562 (hematological)): 94 nM
IC50 (Homo sapiens, Kasumi 1, 72 h, KASUMI-1 (hematological)): 16 nM
IC50 (Homo sapiens, L-363, 72 h, L-363 (hematological)): 3 nM
IC50 (Homo sapiens, LoVo, LOVO (colon)): 2 nM
IC50 (Homo sapiens, MCF7, 72 h, MCF7 (breast)): 2 nM
IC50 (Homo sapiens, MDA-MB-231, 72 h, MDAMB231 (breast)): 381 nM
IC50 (Homo sapiens, MDA-MB-435, 72 h, MDAMB435 (skin)): 17 nM
IC50 (Homo sapiens, MDA-MB-436, 72 h, MDAMB436 (breast)): 3 nM
IC50 (Homo sapiens, MDA-MB-468, 72 h, MDAMB468 (breast)): 18 nM
IC50 (Homo sapiens, MG-63, 72 h, MG63 (bone)): 10 nM
IC50 (Homo sapiens, MHH-ES-1, 72 h, MHHES1 (bone)): 5 nM
IC50 (Homo sapiens, MIA PaCa-2, 72 h, MIAPACA2 (pancreas)): 16 nM
IC50 (Homo sapiens, MINO, MINO (hematological)): 1 nM
IC50 (Homo sapiens, MV4-11, 72 h, MV4-11 (hematological)): 1 nM
IC50 (Homo sapiens, NCI-H23, 72 h, NCI-H23 (lung)): 8 nM
IC50 (Homo sapiens, NCI-H82, 72 h, NCIH82 (lung)): 6 nM
IC50 (Homo sapiens, NCI-H292, 72 h, NCIH292 (lung)): 19 nM
IC50 (Homo sapiens, NCI-H460, 72 h, NCIH460 (lung)): 2 nM
IC50 (Homo sapiens, OVCAR-3, 72 h, OVCAR3 (ovary)): 15 nM
IC50 (Homo sapiens, OVCAR-4, 72 h, OVCAR4 (ovary)): 538 nM
IC50 (Homo sapiens, PLC-PRF-5, 72 h, PLCPRF5 (liver)): 19 nM
IC50 (Homo sapiens, Panc1005, 72 h, PANC1005 (pancreas)): 553 nM
IC50 (Homo sapiens, Ramos, RAMOS (hematological)): 18 nM
IC50 (Homo sapiens, SAOS-2, 72 h, SAOS2 (bone)): 3 nM
IC50 (Homo sapiens, SF-268, 72 h, SF268 (brain)): 7 nM
IC50 (Homo sapiens, SF-295, 72 h, SF295 (brain)): 7 nM
IC50 (Homo sapiens, SK-HEP1, 72 h, SKHEP1 (liver)): 16 nM
IC50 (Homo sapiens, SK-LMS-1, 72 h, SKLMS1 (uterus)): 11 nM
IC50 (Homo sapiens, SK-MEL-5, 72 h, SKMEL5 (skin; SKMELS [sic] in Table 9E)): 29 nM
IC50 (Homo sapiens, SK-MEL-28, 72 h, SKMEL28 (skin)): 112 nM
IC50 (Homo sapiens, SK-N-AS, SKNAS (brain)): > 50000 nM
IC50 (Homo sapiens, SK-N-SH, SKNSH (brain)): 151 nM
IC50 (Homo sapiens, SK-OV-3, 72 h, SKOV3 (ovary)): 28 nM
IC50 (Homo sapiens, SNB-75, 72 h, SNB75 (brain)): > 50000 nM
IC50 (Homo sapiens, SU-DHL10, 72 h, SU-DHL-10 (hematological)): 226 nM
IC50 (Homo sapiens, SU-DHL-6, 72 h, SU-DHL-6 (hematological)): 7 nM
IC50 (Homo sapiens, SW-620, 72 h, SW620 (colon)): 2 nM
IC50 (Homo sapiens, TE-671, 72 h, TE671 (muscle)): 8 nM
IC50 (Homo sapiens, THP-1, 72 h, THP-1 (hematological)): 2 nM
IC50 (Homo sapiens, U2OS, U20S (bone; U2OS in Table 9E)): > 50000 nM
IC50 (Homo sapiens, U-87 MG, U87MG (brain)): > 50000 nM
IC50 (Homo sapiens, UMUC3, 72 h, UMUC3 (bladder)): 7 nM
IC50 (Homo sapiens, UO-31, 72 h, UO31 (kidney)): 31 nM
IC50 (Homo sapiens, WSU-NHL, WSU-NHL (hematological)): 1 nM
IC50 (NCI-H358M, NCIH358M (lung)): 6 nM
IC50 (PBMC, PBMC (hematological)): > 50000 nM
IC50 (RD-ES, RDES (bone)): 7 nM
SMILES: Nc1nc(=O)n([C@H]2C[C@H](O)[C@@H](CO)O2)cc1F [compound 169, 4-amino-5-fluoro-1-((2R,4S,5R)-4-hydroxy-5-(hydroxymethyl)tetrahydrofuran-2-yl)pyrimidin-2(1H)-one]
